In the supplement of paper PMC11061612:

How the values were obtained:
Assay in all cases: Bliss excess, mean over the matrix (fraction); higher = more synergy
[1] = test system: NCCIT (Other Solid Carcinomas)
Outline: (§1)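 After 24 hours at 37°C and 5% CO2 in 1536-well plates, cells in DMEM/F12 or RPMI plus 10% FBS received two-drug dose matrices for 72 hours. Viability came from CellTiter-Glo 2.0 luminescence and was scaled as inhibition, anchored at 0 by vehicle wells and at 1 by blank wells. Combination Emax is taken as the second-highest inhibition in the matrix, and Bliss excess as the observed combination effect less EA + EB − EA·EB, with EA and EB the single-agent effects.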

[2] = test system: 8505C (Thyroid Gland Carcinoma)
Outline: as §1

[3] = test system: VMRC-RCZ (Kidney Carcinoma)
Outline: as §1

[4] = test system: RD (Rhabdomyosarcoma)
Outline: as §1

[5] = test system: DMS-114 (Small Cell Lung Carcinoma)
Outline: as §1

[6] = test system: RPMI-8226 (Plasma Cell Myeloma)
Outline: as §1

[7] = test system: NCI-H661 (Non-Small Cell Lung Carcinoma)
Outline: as §1

[8] = test system: G-361 (Melanoma)
Outline: as §1

[9] = test system: CW-2 (Colorectal Carcinoma)
Outline: as §1

[10] = test system: KY821 (Acute Myeloid Leukemia)
Outline: as §1

[11] = test system: COR-L279 (Small Cell Lung Carcinoma)
Outline: as §1

[12] = test system: KU812 (Chronic Myelogenous Leukemia)
Outline: as §1

[13] = test system: MOG-G-CCM (Low Grade Glioma)
Outline: as §1

[14] = test system: JHH-4 (Hepatocellular Carcinoma)
Outline: as §1

[15] = test system: NCI-H929 (Plasma Cell Myeloma)
Outline: as §1

[16] = test system: SU-DHL-5 (B-Cell Non-Hodgkin's Lymphoma)
Outline: as §1

[17] = test system: NCI-H3122 (Lung Adenocarcinoma)
Outline: as §1

[18] = test system: SK-GT-4 (Esophageal Adenocarcinoma)
Outline: as §1

[19] = test system: PC-3 (Prostate Carcinoma)
Outline: as §1

[20] = test system: H9 (T-Cell Non-Hodgkin's Lymphoma)
Outline: as §1

Structure (SMILES)	Bliss excess [1]	Bliss excess [2]	Bliss excess [3]	Bliss excess [4]	Bliss excess [5]	Bliss excess [6]	Bliss excess [7]	Bliss excess [8]	Bliss excess [9]	Bliss excess [10]	Bliss excess [11]	Bliss excess [12]	Bliss excess [13]	Bliss excess [14]	Bliss excess [15]	Bliss excess [16]	Bliss excess [17]	Bliss excess [18]	Bliss excess [19]	Bliss excess [20]
Cc1c2c(nn1C)CSCc1cc(n(C)n1)CSc1cc(c3ccccc3c1)OCCCc1c(C(=O)O)n(C)c3c-2c(Cl)ccc13 [AZD5991] + Cc1cc2ncnn2cc1Nc1ncc2c(n1)n(C1CCOCC1)c(=O)n2C [AZD7648] (first compound max 1 µM, 7x7, partner max 10 µM)	-0.0494	-0.0125	-0.0405	-0.049	0.0346	-0.0436	-0.0546	0.0031	0.0242	-0.0302	0.0671	-0.0046	-0.0394	-0.0217	0.0091	-0.0377	-0.0563	-0.0651	-0.135	
C[C@@H](c1ccc2nccn2c1)n1nnc2ncc(-c3cnn(C)c3)nc21 [Savolitinib] + CN(CC[C@H](CSC1=CC=CC=C1)NC2=C(C=C(C=C2)S(=O)(=O)NC(=O)C3=CC=C(C=C3)N4CCC(CC4)[C@H](C5=CC=CC=C5C6=CC=C(C=C6)Cl)O)S(=O)(=O)C(F)(F)F)CCO [AZD4320] (first compound max 1 µM, 7x7, partner max 1 µM)		-0.0719		-0.0348		-0.0379	-0.0669	-0.0621		0.0059				-0.0309		-0.0451			-0.0418	-0.0425
Cc1c2c(nn1C)CSCc1cc(n(C)n1)CSc1cc(c3ccccc3c1)OCCCc1c(C(=O)O)n(C)c3c-2c(Cl)ccc13 [AZD5991] + CN(C)CCCOc1ccc(-c2ccc3ncc4c(c3c2)n(C2CCOCC2)c(=O)n4C)cn1 [AZD0156] (first compound max 1 µM, 7x7, partner max 1 µM)	-0.039	-0.137	-0.018	0.0095	0.003	0.0147	-0.0054	0.0371	0.0041	-0.0327	-0.0051	-0.0788	-0.0067	-0.0063	-0.0121	-0.0041	0.0187	-0.031		0.0314
CS(=O)(=O)CCNCc1ccc(-c2ccc3ncnc(Nc4ccc(OCc5cccc(F)c5)c(Cl)c4)c3c2)o1 [Lapatinib] + Cn1cnc2c(F)c(Nc3ccc(Br)cc3Cl)c(C(=O)NOCCO)cc21 [Selumetinib] (first compound max 10 µM, 7x7, partner max 10 µM)	-0.0596		-0.0149		-0.044				0.003		-0.0224	0.0082	-0.0433		0.0271		0.0083	0.0369		
CN(CCO)CC[C@H](CSc1ccccc1)Nc1ccc(S(=O)(=O)NC(=O)c2ccc(N3CCC([C@@H](O)c4ccccc4-c4ccc(Cl)cc4)CC3)cc2)cc1S(=O)(=O)C(F)(F)F [AZD4320] + Cc1cc2ncnn2cc1Nc1ncc2c(n1)n(C1CCOCC1)c(=O)n2C [AZD7648] (first compound max 1 µM, 7x7, partner max 10 µM)	-0.059	-0.0315	-0.058	-0.0189	-0.0514	0.0536	-0.0289	-0.0444	-0.006	0.0393	-0.0057		-0.0387	-0.0356	0.0134	-0.0099	-0.0676	-0.0413	-0.0432	0.0046
C=CCn1c(=O)c2cnc(Nc3ccc(N4CCN(C)CC4)cc3)nc2n1-c1cccc(C(C)(C)O)n1 [AZD1775] + O=C(c1cc(Cc2n[nH]c(=O)c3ccccc23)ccc1F)N1CCN(C(=O)C2CC2)CC1 [Olaparib] (first compound max 1 µM, partner max 10 µM)	-0.0458		-0.0443	-0.0532	-0.021	-0.0366	-0.0179	-0.0217	0.0127	0.019	-0.0572	-0.039	-0.0542	-0.0254	-0.0525	0.0215	-0.0111	-0.0709	-0.0663	-0.0075
COc1nnc2ccc(N3CCC(c4ccc(OCCN5CCN(C)C(=O)[C@H]5C)cc4)CC3)nn12 [AZD5153] + CN(CC[C@H](CSC1=CC=CC=C1)NC2=C(C=C(C=C2)S(=O)(=O)NC(=O)C3=CC=C(C=C3)N4CCC(CC4)[C@H](C5=CC=CC=C5C6=CC=C(C=C6)Cl)O)S(=O)(=O)C(F)(F)F)CCO [AZD4320] (first compound max 1 µM, 7x7, partner max 1 µM)		0.0185		0.0526		-0.0027	0.0102	0.0314		0.0111				0.0556		-0.0155			0.0691	-0.0291
CCc1c2c(nc3ccc(O)cc13)-c1cc3c(c(=O)n1C2)COC(=O)[C@]3(O)CC [SN-38] + O=C(c1cc(Cc2n[nH]c(=O)c3ccccc23)ccc1F)N1CCN(C(=O)C2CC2)CC1 [Olaparib] (first compound max 0.3 µM, 7x7, partner max 10 µM)	0.0062	0.0498	0.0072		0.0741		0.0696	0.0322	0.0293	0.0503	0.0742	0.0053	0.099		0.0505	0.065	0.0685	0.0257		0.111
